# Patent US6699863B1, “Kinase inhibitors for the treatment of disease” (Allergan, Inc., priority 2002, dated 2004)
# Experiments:
# [1] = tested on: VEGF-induced EBD extravasation; assay: VEGF-induced Dermal Extravasation in Guinea Pig (Miles Assay); type: in vivo; details: vehicle corn oil; for % Inhibition @ Dose (mg/Kg): 75 mg/Kg single oral dose
# Experimental: Male Hartley guinea pigs (300-600 g) were anesthetized with isofluorane, sheared, and given a single dose of drug or the respective vehicle. The guinea pigs were dosed orally unless indicated otherwise in Table 3. Ten minutes prior to the end of drug treatment, guinea pigs were anesthetized with isofluorane, and 0.5% Evans blue dye (EBD) in PBS (13-15 mg/kg dose of EBD) was injected intravenously. After 5 minutes, triplicate intradermal injections of 100 ng rhVEGF165 in 100 μl PBS and of 100 μl PBS alone were administered on the flank. After 20 minutes, each animal was euthanized with Pentosol, and the skin containing the intradermal injection sites was removed for image analysis.
# Using an analog video camera coupled to a PC, an image of each trans-illuminated skin sample was captured, and the integrated optical density of each injection site was measured using ImagePro 4. For each skin sample, the difference between the mean optical density of the VEGF sites and mean optical density of the PBS sites is the measure of VEGF-induced EBD extravasation in that animal. These measured values were averaged per study group to determine the mean VEGF-induced EBD extravasation for each experimental condition, and the group means were then compared to assess inhibition of VEGF-induced EBD extravasation in the drug-treated groups relative to the vehicle-treated controls.
# (§1) To determine the dose required for 50% inhibition (ID50), the percent inhibition data was plotted as a function of oral dose, using the ‘best-fit’ analysis within MicroSoft Excel software. The ID50 value was verified visually by using the plotted data (horizontal line from 50% y value, at intersection with best-fit line drop vertical line to x axis (dose).
# [2] = tested on: VEGF induced increases in intracellular calcium levels in HUVEC (human umbilical vein endothelial cells); assay: VEGF Stimulated Ca++ Signal In vitro (FLIPR); type: cell-based; details: VEGF stimulation 5 ng/mL, 30 min pre-incubation
# Experimental: Automated FLIPR (Fluorometric Imaging Plate Reader) technology was used to screen for inhibitors of VEGF induced increases in intracellular calcium levels in fluorescent dye loaded endothelial cells. HUVEC (human umbilical vein endothelial cells) (Clonetics) were seeded in 96-well fibronectin coated black-walled plates overnight at 37° C./5%CO2. Cells were loaded with calcium indicator Fluo-4 for 45 minutes at 37° C. Cells were washed 4 times (Original Cell Wash, Labsystems) to remove extracellular dye. Test compounds were reconstituted in 100% DMSO and added to the cells to give a final DMSO concentration of 0.1%. For screening, cells were pre-incubated with test agents for 30 minutes, at a single concentration (10 μM) or at concentrations ranging from 0.01 to 10.0 μM followed by VEGF stimulation (5 ng/mL). Changes in fluorescence at 516 nm were measured simultaneously in all 96 wells using a cooled CCD camera. Data were generated by determining max-min fluorescence levels for unstimulated, stimulated, and drug treated samples. IC50 values for test compounds were calculated from % inhibition of VEGF stimulated responses in the absence of inhibitor.
# [3] = target: T1, human VEGF receptor (VEGFR-2) (Homo sapiens, UniProt P35968); assay: VEGFR2 Kinase Assay; type: biochemical; details: 3.6 μM ATP, poly-Glu-Tyr (4:1)
# T1 construct: The cytoplasmic domain of the human VEGF receptor (VEGFR-2) was expressed; His (histidine tag); made in house; host or cells: insect cells (engineered baculovirus)
# T1 sequence (P35968 786-1356 limits assumed): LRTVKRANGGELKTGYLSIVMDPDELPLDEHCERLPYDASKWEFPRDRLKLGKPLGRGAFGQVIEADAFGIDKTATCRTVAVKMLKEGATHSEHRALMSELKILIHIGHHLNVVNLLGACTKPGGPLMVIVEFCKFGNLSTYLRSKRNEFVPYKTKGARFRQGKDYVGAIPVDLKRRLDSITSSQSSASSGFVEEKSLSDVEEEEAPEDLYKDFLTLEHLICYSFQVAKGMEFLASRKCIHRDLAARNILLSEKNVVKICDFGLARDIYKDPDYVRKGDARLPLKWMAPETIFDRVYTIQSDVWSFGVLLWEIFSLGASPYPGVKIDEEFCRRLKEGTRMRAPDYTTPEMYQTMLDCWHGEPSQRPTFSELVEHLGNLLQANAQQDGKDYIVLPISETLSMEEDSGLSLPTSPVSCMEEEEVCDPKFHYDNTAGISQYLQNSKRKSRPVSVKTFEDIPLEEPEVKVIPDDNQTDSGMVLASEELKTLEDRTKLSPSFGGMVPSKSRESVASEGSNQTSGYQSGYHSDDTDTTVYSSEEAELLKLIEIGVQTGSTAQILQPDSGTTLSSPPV
# Experimental: The cytoplasmic domain of the human VEGF receptor (VEGFR-2) was expressed as a Hisfidine-tagged fusion protein following infection of insect cells using an engineered baculovirus. His-VEGFR-2 was purified to homogeneity, as determined by SDS-PAGE, using nickel resin chromatography. Kinase assays were performed in 96 well microtiter plates that were coated overnight with 30 μg of poly-Glu-Tyr (4:1) in 10 mM Phosphate Buffered Saline (PBS), pH 7.2-7.4. The plates were incubated with 1% BSA and then washed four times with PBS prior to starting the reaction. Reactions were carried out in 120 μL reaction volumes containing 3.6 μM ATP in kinase buffer (50 mM Hepes buffer pH 7.4, 20 mM MgCl2, 0.1 mM MnCl2 and 0.2 mM Na3VO4). Test compounds were reconstituted in 100% DMSO and added to the reaction to give a final DMSO concentration of 5%. Reactions were initiated by the addition 0.5 ng of purified protein. Following a ten minute incubation at 25° C., the reactions were washed four times with PBS containing 0.05% Tween-20. 100 μl of a monoclonal anti-phosphotyrosine antibody-peroxidase conjugate was diluted 1:10000 in PBS-Tween-20 and added to the wells for 30 minutes. Following four washes with PBS-Tween-20, 100 μl of O-phenylenediamine Dihydrochloride in Phosphate-citrate buffer, containing urea hydrogen peroxide, was added to the wells for 7 minutes as a colorimetric substrate for the peroxidase. The reaction was terminated by the addition of 100 μl of 2.5N H2SO4 to each well and read using a microplate ELISA reader set at 492 nm. IC50 values for compound inhibition were calculated directly from graphs of optical density (arbitrary units) versus compound concentration following subtraction of blank values.
# [4] = physchem; type: physicochemical; details: buffer
# Experimental: The chemical stability of Example 12 of the invention has been studied using buffers at pH 1, pH 3 and pH 7. Example 12 prepared in acetonitrile at 200 μg/mL and diluted to 20 μg/mL in buffers at pH 1, pH 3 and pH 7.
# [5] = tested on: laser-induced choroidal neovascularization; assay: Laser-induced Choroidal Neovascularization (CNV) in Rat (CNV Assay); type: in vivo; details: vehicle corn oil
# Experimental: CNV was induced and quantified in this model as previously described (Edelman and Castro. Exp. Eye Res. 2000; 71:523-533). On day 0, male Brown Norway rats (200-300 g) were anesthetized with 100 mg/kg Ketamine and 10 mg/kg Xylazine, and pupils were dilated with 1% Tropicamide. Using the blue-green setting of a Coherent Novus Argon Laser, 3 laser bums (90 mW for 0.1 s; 100 μm diameter) were given to each eye between the retinal vessels around the optic nerve head. Rats were dosed with test compounds in their indicated vehicles orally once daily.
# On day 10, rats were sacrificed with 100% CO2, and blood vessels were labeled by vascular perfusion with 10 mg/ml FITC-dextran (MW 2×10^6). Using an epifluorescence microscope (20×) coupled to a spot digital camera and a PC, images were obtained from the flat mounts of the RPE-choroid-sclera from each eye, and the area occupied by hyperfluorescent neovessels within each laser lesion was measured using ImagePro 4 software.
# as §1
Structure (SMILES),IC50 [3],% Inhibition @ Dose (mg/Kg) [1],IC50 [2],also measured
"O=C1C(=CNc2ccc(N3CCOCC3)cc2)c2ccccc2N1CN1CCCCC1 [Example 12, 3-[(4-Morpholin-4-yl-phenylamino)-methylene]-1-piperidin-1-ylmethyl-1,3-dihydro-indol-2-one]",478 nM,88% @ 75 mg/Kg,432 nM,"half-life at 20 μg/mL ([4]; pH 1): ~38 h; half-life at 20 μg/mL ([4]; pH 3): ~20 h; half-life at 20 μg/mL ([4]; pH 7.4): < 0.5 h; % Inhibition @ Dose (mg/Kg) ([5]; 80 mg/Kg (sid) oral once daily, day 10): 94% @ 80 mg/Kg (sid); ID50 ([5]; oral once daily): 36 mg/kg; ID50 ([1]; oral): 36 mg/kg"
"O=C1C(=CNc2ccc(N3CCOCC3)cc2)c2ccccc2N1CN1CCOCC1 [Example 13, 1-Morpholin-4-ylmethyl-3-[(4-morpholin-4-yl-phenylamino)-methylene]-1,3-dihydro-indol-2-one]",3860 nM,35% @ 75 mg/Kg,722 nM,
"O=C1Nc2ccccc2C1=C1OCc2ccccc21 [Example 14, 3-(3H-isobenzofuran-1-ylidene)-1,3-dihydro-indol-2-one]",,,110 nM,

# Continued, in another order:
IC50 [3],Structure (SMILES),% Inhibition @ Dose (mg/Kg) [1],IC50 [2],also measured
260 nM,"O=C1Nc2ccccc2C1=CNc1ccc(N2CCOCC2)cc1 [Example 11, 3-[(4-morpholinophenylamino)-methylene]-1,3-dihydro-indol-2-one]",40% @ 75 mg/Kg,294 nM,
31 nM,"CN(C)c1ccc2c(c1)COC2=C1C(=O)Nc2ccccc21 [Example 18, 3-(5-Dimethylamino-3H-isobenzofuran-1-ylidene)-1,3-dihydro-indol-2-one]",,22 nM,
133 nM,"CN(C)c1ccc2c(c1)COC2=C1C(=O)N(CN2CCCCC2)c2ccccc21 [Example 19, 3-(5-Dimethylamino-3H-isobenzofuran-1-ylidene)-1-piperidin-1-ylmethyl-1,3-dihydro-indol-2-one]",,120 nM,
22 nM,"CN(C)c1ccc2c(c1)COC2=C1C(=O)Nc2ccc(Cl)cc21 [Example 20, 5-Chloro-3-(5-dimethylamino-3H-isobenzofuran-1-ylidene)-1,3-dihydro-indol-2-one]",,33 nM,
